In patent publication US20230022157A1 (Achillion Pharmaceuticals, Inc., priority 2018, published 2023):
pIC50: −log10 of the molar value.

The compounds below were run against T1, Human Factor D (Homo sapiens, UniProt P00746) (assay: Human Factor D Assay). Settings: Human Factor D 80 nM, substrate Z-L-Lys-SBzl; Table 2; read-out: IC50 (Stars).
T1 construct: purified from human serum; purchased Complement Technology, Inc; host or cells: human serum (natural protein, not recombinant)
Format: biochemical
In short: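 Serum-purified human factor D (80 nM final) preincubated 5 min at room temperature with test compound in 50 mM Tris, 1M NaCl, pH 7.5. Z-L-Lys-SBzl substrate and DTNB then added, each at 100 μM final. IC50 from nonlinear regression of reaction rate against compound concentration.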

T1 sequence (P00746 26-253): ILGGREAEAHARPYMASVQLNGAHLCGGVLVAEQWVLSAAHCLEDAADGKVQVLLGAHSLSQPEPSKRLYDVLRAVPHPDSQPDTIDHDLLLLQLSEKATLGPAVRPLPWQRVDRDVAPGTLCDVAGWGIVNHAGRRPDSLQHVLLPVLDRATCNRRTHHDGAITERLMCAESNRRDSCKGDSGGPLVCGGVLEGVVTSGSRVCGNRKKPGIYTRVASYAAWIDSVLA

Row | SMILES | pIC50
1 | Cc1cc(F)c(Br)nc1NC(=O)[C@@H]1C[C@@]2(C)C[C@H]2N1C(=O)Cn1nc(C(N)=O)c2cc(-c3cnc(CO)nc3)nc(C)c21 [Compound 167, (1R,3S,5R)—N-(6-bromo-5-fluoro-3-methylpyridin-2-yl)-2-(2-{3-carbamoyl-5-[2-(hydroxymethyl)pyrimidin-5-yl]-7-methylpyrazolo[3,4-c]pyridin-1-yl}acetyl)-5-methyl-2-azabicyclo[3.1.0]hexane-3-carboxamide] | > 6.00
2 | Cc1cc(F)c(Br)nc1NC(=O)[C@@H]1[C@@H]2C[C@@H]2CN1C(=O)Cn1nc(C(N)=O)c2cc(-c3cnc(CO)nc3)nc(C)c21 [Compound 168, 1-(2-((1R,2S,5S)-2-((6-bromo-5-fluoro-3-methylpyridin-2-yl)carbamoyl)-3-azabicyclo[3.1.0]hexan-3-yl)-2-oxoethyl)-5-(2-(hydroxymethyl)pyrimidin-5-yl)-7-methyl-1H-pyrazolo[3,4-c]pyridine-3-carboxamide] | > 6.00
3 | CC(=O)c1nn(CC(=O)N2[C@H](C(=O)Nc3nc(Br)ccc3C)C[C@@]3(C)C[C@@H]23)c2c(C)cc(-c3cnc(C4(O)CC4)nc3)cc12 [Compound 169] | > 6.00
4 | CC(=O)c1nn(CC(=O)N2[C@H]3CC[C@H](C3)[C@H]2C(=O)Nc2nc(C(F)(F)F)ccc2C)c2c(C)cc(-c3cnc(C(C)O)nc3)cc12 (stereo partly drawn) [Compound 171, (1S,3S,4R)-2-(2-(3-acetyl-5-(2-(1-hydroxyethyl)pyrimidin-5-yl)-7-methyl-1H-indazol-1-yl)acetyl)-N-(3-methyl-6-(trifluoromethyl)pyridin-2-yl)-2-azabicyclo[2.2.1]heptane-3-carboxamide] | > 6.00
5 | COCC(Cc1ccccc1)NC(=O)[C@@H]1C[C@@]2(C)C[C@H]2N1C(=O)Cn1nc(C(C)=O)c2cc(-c3cnc(C)nc3)cc(C)c21 (stereo partly drawn) [Compound 172, (1R,3S,5R)-2-{2-[3-acetyl-7-methyl-5-(2-methylpyrimidin-5-yl)indazol-1-yl]acetyl}-N-(1-methoxy-3-phenylpropan-2-yl)-5-methyl-2-azabicyclo[3.1.0]hexane-3-carboxamide] | > 6.00
6 | CCC(Cc1ccccc1)NC(=O)[C@@H]1C[C@@]2(C)C[C@H]2N1C(=O)Cn1nc(C(C)=O)c2cc(-c3cnc(C)nc3)cc(C)c21 (stereo partly drawn) [Compound 173, (1R,3S,5R)-2-{2-[3-acetyl-7-methyl-5-(2-methylpyrimidin-5-yl)indazol-1-yl]acetyl}-5-methyl-N-(1-phenylbutan-2-yl)-2-azabicyclo[3.1.0]hexane-3-carboxamide] | > 6.00
7 | C=CCC(Cc1ccccc1)NC(=O)[C@@H]1C[C@@]2(C)C[C@H]2N1C(=O)Cn1nc(C(C)=O)c2cc(-c3cnc(C)nc3)cc(C)c21 (stereo partly drawn) [Compound 174, (1R,3S,5R)-2-{2-[3-acetyl-7-methyl-5-(2-methylpyrimidin-5-yl)indazol-1-yl]acetyl}-5-methyl-N-(1-phenylpent-4-en-2-yl)-2-azabicyclo[3.1.0]hexane-3-carboxamide] | > 6.00
8 | C#CCC(Cc1ccccc1)NC(=O)[C@@H]1C[C@@]2(C)C[C@H]2N1C(=O)Cn1nc(C(C)=O)c2cc(-c3cnc(C)nc3)cc(C)c21 (stereo partly drawn) [Compound 175, (1R,3S,5R)-2-{2-[3-acetyl-7-methyl-5-(2-methylpyrimidin-5-yl)indazol-1-yl]acetyl}-5-methyl-N-(1-phenylpent-4-yn-2-yl)-2-azabicyclo[3.1.0]hexane-3-carboxamide] | > 6.00
9 | CC(=O)c1nn(CC(=O)N2[C@H](C(=O)Nc3nc(Br)ccc3C)C[C@@]3(C)C[C@@H]23)c2c(C)cc(-c3cnc(C(C)O)cn3)cc12 (stereo partly drawn) [Compound 176, (1R,3S,5R)-2-(2-(3-acetyl-5-(5-(1-hydroxyethyl)pyrazin-2-yl)-7-methyl-1H-indazol-1-yl)acetyl)-N-(6-bromo-3-methylpyridin-2-yl)-5-methyl-2-azabicyclo[3.1.0]hexane-3-carboxamide] | > 6.00
